Laboratory results published in article PMC8632988, “Inhibition of SYK and cSrc kinases can protect bone and cartilage in preclinical models of osteoarthritis and rheumatoid arthritis” (Scientific Reports, 2021).
“And” between values parts separate entries of the source, which are not always exact repeats. Identical values can stand only once.

Tested on: DBA/1 mice, CIA model
Assay: Collagen-induced arthritis model in mice
Format: in vivo, mouse
Parameters: Total AUC Sum (d1-11) / Total AUC Sum (d1-11), Mean: scale not given here
Protocol: Collagen-induced arthritis (CIA) model was performed at Bolder BioPATH, USA. Study design and animal usage was approved by Bolder BioPATH’s Institutional Animal Care and Use Committee. CIA was induced in 6–7 week old male DBA/1 mice with body weight of 15–26 g (Harlan, Inc) by intradermal injection of Freund’s Complete Adjuvant (Difco) containing bovine type II collagen (Bolder BioPATH) on day 0 and again on day 21 according to the standard protocol. […] After that mice were randomized into six groups: a control group of four, vehicle group and four treatment groups of ten mice each. […] Each paw was scored daily for inflammation. Therapeutic and prophylactic paws were considered. At study termination mice were euthanized by CO2 inhalation followed by cervical dislocation. Fore paws, hind paws, and knees were removed for microscopy.
Mice were weighed on arthritis days 1, 3, 5, 7, 9, and 11 (prior to necropsy). Daily clinical scores were given for each of the paws (right front, left front, right rear, left rear) on days 1–11 using the following criteria:
After 1–2 days in fixative and 4–5 days in 5% formic acid for decalcification, tissues were trimmed, processed for paraffin embedding, sectioned at 8 µm and stained with toluidine blue. Hind paws and knees were embedded and sectioned in the frontal plane. Two joints from each animal were processed for histopathology evaluation. The joints were then scored by two independent readers as indicated below. When scoring, severity of changes as well as number of individual joints affected were considered. When only 1–3 joints of the paws or ankles out of a possibility of numerous metacarpal/metatarsal/digit or tarsal/tibiotarsal joints were affected, an arbitrary assignment of a maximum score of 1, 2 or 3 for parameters below was given depending on severity of changes. If more than 3 joints were involved, the criteria below were applied to the most severely affected/majority of joints.

[1] = all joints, MT-SYK-03 103 mg/kg PO, BID (Group 4)
[2] = all joints, MT-SYK-03 103 mg/kg PO, BID (Group 4), group mean
[3] = all joints, MT-SYK-03 103 mg/kg PO, BID (Group 4), individual animals, 103 mg/kg

SMILES: COc1cc(Nc2ncnc(Nc3cc4c(cn3)NC(=O)C(C)(C)O4)n2)cc(OC)c1OC [MT-SYK-03]
- % inhibition to Vehicle, Summed Prophylactic (Non-Enrollment) Paw Score (MT-SYK-03 103 mg/kg PO, BID, Day 11): 17%
- Summed Prophylactic (Non-Enrollment) Paw Score (MT-SYK-03 103 mg/kg PO, BID, Day 11, group mean): 7.30
- Summed Prophylactic (Non-Enrollment) Paw Score (MT-SYK-03 103 mg/kg PO, BID, Day 11, individual animals, 103 mg/kg): 9 and 3 and 12 and 8 and 2 and 10 and 7 and 5
- Total AUC Sum (d1-11), Prophylactic (Non-Enrollment) Paw Score (MT-SYK-03 103 mg/kg PO, BID, group mean): 54.15
- Total AUC Sum (d1-11), Prophylactic (Non-Enrollment) Paw Score (MT-SYK-03 103 mg/kg PO, BID, individual animals, 103 mg/kg): 67.5 and 27.5 and 71.0 and 61.0 and 12.0 and 80.0 and 70.5 and 51.5 and 63.0 and 37.5
- % inhibition, Bone Resorption score [1]: 29%
- % inhibition, Cartilage Damage score [1]: 17%
- % inhibition, Inflammation score [1]: 7%
- % inhibition, Pannus score [1]: 29%
- % inhibition, Periosteal Bone Formation score [1]: 18%
- % inhibition, Periosteal Bone Width [1]: 20%
- % inhibition, Summed Scores [1]: 18%
- Histopathology Scores Bone Resorption, Mean [2]: 1.23
- Histopathology Scores Cartilage Damage, Mean [2]: 2.74
- Histopathology Scores Inflammation, Mean [2]: 3.44
- Histopathology Scores Pannus, Mean [2]: 1.23
- Histopathology Scores Periosteal Bone Formation, Mean [2]: 0.93
- Histopathology Scores Summed Scores, Mean [2]: 9.58
- Periosteal Bone Width (40*25x measure), Mean [2]: 79.33 μm
- Histopathology Scores Bone Resorption [3]: 0.83 and 0.75 and 1.17 and 1.92 and 1.42 and 2.00 and 1.75 and 0.33
- Histopathology Scores Cartilage Damage [3]: 2.33 and 2.00 and 2.58 and 4.00 and 1.67 and 2.75 and 4.17 and 3.25 and 0.67
- Histopathology Scores Inflammation [3]: 2.83 and 3.17 and 3.83 and 4.67 and 1.92 and 3.42 and 4.50 and 4.33
- Histopathology Scores Pannus [3]: 0.83 and 0.75 and 1.17 and 1.92 and 1.42 and 2.00 and 1.75 and 0.33
- Histopathology Scores Periosteal Bone Formation [3]: 0.67 and 1.17 and 1.33 and 0.33 and 1.67 and 0.83
- Histopathology Scores Summed Scores [3]: 7.50 and 7.33 and 9.92 and 13.83 and 5.42 and 10.17 and 11.58 and 12.67 and 3.58
- Periosteal Bone Width (40*25x measure) [3]: 40.00 μm and 53.33 μm and 106.67 μm and 120.00 μm and 33.33 μm and 86.67 μm and 140.00 μm and 80.00 μm and 26.67 μm
- Histopathology scores for knee and ankle joints (murine CIA): decreased histopathology scores
- Periosteal bone width of paw and knee joints (murine CIA): slightly decreased
- Cartilage damage, bone resorption and inflammation in knees (microphotographs) (murine CIA, 103 mg/kg oral): decreasing of cartilage damage, bone resorption and inflammation in knees
- Clinical arthritis score (severity of inflammation) (murine CIA, MT-SYK-03 103 mg/kg oral): reduced the severity of inflammation
- % inhibition to Vehicle, Total AUC Sum (d1-11) (therapeutic/enrollment paw score, MT-SYK-03 103 mg/kg PO, BID (Group 4)): 6%
- Total AUC Sum (d1-11), Mean (therapeutic/enrollment paw score, MT-SYK-03 103 mg/kg PO, BID (Group 4), group mean): 59.75
- Total AUC Sum (d1-11) (therapeutic/enrollment paw score, MT-SYK-03 103 mg/kg PO, BID (Group 4), individual animals, 103 mg/kg): 79 and 81 and 73 and 33 and 42 and 102 and 83 and 38 and 36
- % inhibition to Vehicle, paw score Day 1 (therapeutic/enrollment paws, Day 1, MT-SYK-03 103 mg/kg PO, BID (Group 4)): 0%
- Average Paw Score Per Arthritis Day, Day 1, Mean (therapeutic/enrollment paws, Day 1, MT-SYK-03 103 mg/kg PO, BID (Group 4), group mean): 3.20
- Average Paw Score Per Arthritis Day, Day 1 (therapeutic/enrollment paws, Day 1, MT-SYK-03 103 mg/kg PO, BID (Group 4), individual animals, 103 mg/kg): 4 and 2 and 6
- % inhibition to Vehicle, paw score Day 2 (therapeutic/enrollment paws, Day 2, MT-SYK-03 103 mg/kg PO, BID (Group 4)): 19%
- Average Paw Score Per Arthritis Day, Day 2, Mean (therapeutic/enrollment paws, Day 2, MT-SYK-03 103 mg/kg PO, BID (Group 4), group mean): 3.80
- Average Paw Score Per Arthritis Day, Day 2 (therapeutic/enrollment paws, Day 2, MT-SYK-03 103 mg/kg PO, BID (Group 4), individual animals, 103 mg/kg): 4 and 6 and 2 and 3
- % inhibition to Vehicle, paw score Day 3 (therapeutic/enrollment paws, Day 3, MT-SYK-03 103 mg/kg PO, BID (Group 4)): 8%
- Average Paw Score Per Arthritis Day, Day 3, Mean (therapeutic/enrollment paws, Day 3, MT-SYK-03 103 mg/kg PO, BID (Group 4), group mean): 5.40
- Average Paw Score Per Arthritis Day, Day 3 (therapeutic/enrollment paws, Day 3, MT-SYK-03 103 mg/kg PO, BID (Group 4), individual animals, 103 mg/kg): 6 and 8 and 3 and 4 and 9
- % inhibition to Vehicle, paw score Day 4 (therapeutic/enrollment paws, Day 4, MT-SYK-03 103 mg/kg PO, BID (Group 4)): 6%
- Average Paw Score Per Arthritis Day, Day 4, Mean (therapeutic/enrollment paws, Day 4, MT-SYK-03 103 mg/kg PO, BID (Group 4), group mean): 5.80
- Average Paw Score Per Arthritis Day, Day 4 (therapeutic/enrollment paws, Day 4, MT-SYK-03 103 mg/kg PO, BID (Group 4), individual animals, 103 mg/kg): 7 and 8 and 6 and 4 and 10 and 3
- % inhibition to Vehicle, paw score Day 5 (therapeutic/enrollment paws, Day 5, MT-SYK-03 103 mg/kg PO, BID (Group 4)): 6%
- Average Paw Score Per Arthritis Day, Day 5, Mean (therapeutic/enrollment paws, Day 5, MT-SYK-03 103 mg/kg PO, BID (Group 4), group mean): 6.20
- Average Paw Score Per Arthritis Day, Day 5 (therapeutic/enrollment paws, Day 5, MT-SYK-03 103 mg/kg PO, BID (Group 4), individual animals, 103 mg/kg): 8 and 7 and 4 and 11 and 3 and 9
- % inhibition to Vehicle, paw score Day 6 (therapeutic/enrollment paws, Day 6, MT-SYK-03 103 mg/kg PO, BID (Group 4)): 5%
- Average Paw Score Per Arthritis Day, Day 6, Mean (therapeutic/enrollment paws, Day 6, MT-SYK-03 103 mg/kg PO, BID (Group 4), group mean): 6.30
- Average Paw Score Per Arthritis Day, Day 6 (therapeutic/enrollment paws, Day 6, MT-SYK-03 103 mg/kg PO, BID (Group 4), individual animals, 103 mg/kg): 8 and 4 and 11 and 3 and 9
- % inhibition to Vehicle, paw score Day 7 (therapeutic/enrollment paws, Day 7, MT-SYK-03 103 mg/kg PO, BID (Group 4)): 3%
- Average Paw Score Per Arthritis Day, Day 7, Mean (therapeutic/enrollment paws, Day 7, MT-SYK-03 103 mg/kg PO, BID (Group 4), group mean): 6.60
- Average Paw Score Per Arthritis Day, Day 7 (therapeutic/enrollment paws, Day 7, MT-SYK-03 103 mg/kg PO, BID (Group 4), individual animals, 103 mg/kg): 9 and 8 and 4 and 11
- % inhibition to Vehicle, paw score Day 8 (therapeutic/enrollment paws, Day 8, MT-SYK-03 103 mg/kg PO, BID (Group 4)): 3%
- Average Paw Score Per Arthritis Day, Day 8, Mean (therapeutic/enrollment paws, Day 8, MT-SYK-03 103 mg/kg PO, BID (Group 4), group mean): 6.80
- Average Paw Score Per Arthritis Day, Day 8 (therapeutic/enrollment paws, Day 8, MT-SYK-03 103 mg/kg PO, BID (Group 4), individual animals, 103 mg/kg): 10 and 9 and 3 and 5 and 11 and 4
- % inhibition to Vehicle, paw score Day 9 (therapeutic/enrollment paws, Day 9, MT-SYK-03 103 mg/kg PO, BID (Group 4)): 5%
- Average Paw Score Per Arthritis Day, Day 9, Mean (therapeutic/enrollment paws, Day 9, MT-SYK-03 103 mg/kg PO, BID (Group 4), group mean): 6.90
- Average Paw Score Per Arthritis Day, Day 9 (therapeutic/enrollment paws, Day 9, MT-SYK-03 103 mg/kg PO, BID (Group 4), individual animals, 103 mg/kg): 10 and 9 and 3 and 5 and 12 and 4
- % inhibition to Vehicle, paw score Day 10 (therapeutic/enrollment paws, Day 10, MT-SYK-03 103 mg/kg PO, BID (Group 4)): 7%
- Average Paw Score Per Arthritis Day, Day 10, Mean (therapeutic/enrollment paws, Day 10, MT-SYK-03 103 mg/kg PO, BID (Group 4), group mean): 6.90
- Average Paw Score Per Arthritis Day, Day 10 (therapeutic/enrollment paws, Day 10, MT-SYK-03 103 mg/kg PO, BID (Group 4), individual animals, 103 mg/kg): 10 and 9 and 3 and 5 and 12 and 4
- % inhibition to Vehicle, paw score Day 11 (therapeutic/enrollment paws, Day 11, MT-SYK-03 103 mg/kg PO, BID (Group 4)): 7%
- Average Paw Score Per Arthritis Day, Day 11, Mean (therapeutic/enrollment paws, Day 11, MT-SYK-03 103 mg/kg PO, BID (Group 4), group mean): 6.90
- Average Paw Score Per Arthritis Day, Day 11 (therapeutic/enrollment paws, Day 11, MT-SYK-03 103 mg/kg PO, BID (Group 4), individual animals, 103 mg/kg): 10 and 9 and 3 and 5 and 12 and 4
